# Laboratory results: patent publication US10766902B2, “Wee-1 inhibiting pyrazolopyrimidinone compounds” (ALMAC DISCOVERY LIMITED, priority 2016, dated 2020)
# Biological target: Wee-1 kinase (Homo sapiens (Human), UniProt P30291)
# Test: Measurement of Wee-1 kinase activity (ADP-Glo luminescence)
# Format: biochemical
# Settings: read-out: Wee1 IC50
# Description: Method 1: Measurement of Wee-1 Kinase Activity
# In the measurement of Wee-1 activity, a commercial peptide Poly(Lys Tyr(4:1)) hydrobromide was purchased from Sigma Aldrich and used as the substrate. Activated Wee-1 kinase was purchased from Invitrogen (PV3817) and an ADP-Glo luminescent kit was purchased from Promega.
# All reactions took place in […] volumes in reaction buffer containing 40 mM Tris-HCl and 20 mM magnesium chloride, supplemented with 0.1 mg/mL bovine serum albumin and 2 mM DTT. Compounds were serially diluted in buffer and 5 μL of each concentration pipetted into a white 384 well plate (Sigma Aldrich M6186). A 5 μL aliquot of the Wee-1 enzyme was added to each well and the plate centrifuged for 1 min to ensure mixing of the enzyme and inhibitor.
# The plate was incubated at room temperature for 30 minutes before the addition of 2.0 μg/mL of substrate and 30 μM ATP in a 5 μL aliquot. The plate was centrifuged for one minute and incubated for 1 h at RT.
# 15 μL of ADP-Glo stop reagent was added to each well to quench the reaction and deplete unconverted ATP. The plate was incubated for a further 40 min in the dark at RT.
# 30 μL of ADP-Glo kinase detection reagent was added to each well, converting ADP to ATP, catalysing the generation of luciferin by luciferase. The plate was shaken for 1 min, and incubated in the dark for an additional hour.
# Luminescence from each well was detected using the Biotek Synergy4 HD plate reader and the percentage inhibition of kinase activity calculated for each inhibitor tested. Positive (kinase only) and negative (no kinase) controls were added to each plate to ensure specific interaction of kinase and inhibitor. The IC50 concentration for each inhibitor was calculated by plotting the percentage kinase inhibition against concentration of inhibitor and the curve generated by non-linear regression fitting.
# Sequence of Wee-1 kinase (P30291 whole entry): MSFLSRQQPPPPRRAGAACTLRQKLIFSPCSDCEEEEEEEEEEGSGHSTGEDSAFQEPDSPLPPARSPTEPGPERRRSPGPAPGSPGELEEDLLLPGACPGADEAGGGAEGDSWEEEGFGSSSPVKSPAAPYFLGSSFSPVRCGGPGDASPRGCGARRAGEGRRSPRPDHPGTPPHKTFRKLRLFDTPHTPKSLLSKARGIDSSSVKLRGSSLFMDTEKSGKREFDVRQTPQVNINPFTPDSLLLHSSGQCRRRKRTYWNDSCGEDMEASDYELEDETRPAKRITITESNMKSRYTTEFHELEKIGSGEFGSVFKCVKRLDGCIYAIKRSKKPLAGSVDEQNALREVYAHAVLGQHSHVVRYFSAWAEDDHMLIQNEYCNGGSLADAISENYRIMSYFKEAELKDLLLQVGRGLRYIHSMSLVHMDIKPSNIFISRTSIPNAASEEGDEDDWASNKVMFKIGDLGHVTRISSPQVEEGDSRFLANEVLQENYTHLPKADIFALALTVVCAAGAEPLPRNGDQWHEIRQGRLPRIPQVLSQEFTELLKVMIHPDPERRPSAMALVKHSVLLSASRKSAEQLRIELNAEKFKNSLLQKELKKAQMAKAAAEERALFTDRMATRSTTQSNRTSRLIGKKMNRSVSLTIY
row,Compound,IC50 [nM]
1,"C=CCn1c(=O)c2cnc(Nc3ccc(OCCNC)cc3)nc2n1-c1cccc(N=S(C)(C)=O)c1 [Example 27, 1-(3-{[Dimethyl(oxo)-λ^6-sulfanylidene]amino}phenyl)-6-({4-[2-(methylamino)ethoxy]phenyl}amino)-2-(prop-2-en-1-yl)-1H,2H,3H-pyrazolo[3,4-d]pyrimidin-3-one]",1.7
2,"CC(C)n1c(=O)c2cnc(Nc3ccc(F)cc3F)nc2n1-c1cccc(N=S(C)(C)=O)n1 [Example 65, 6-[(2,4-Difluorophenyl)amino]-1-(6-{[dimethyl(oxo)-λ^6-sulfanylidene]amino}pyridin-2-yl)-2-(propan-2-yl)-1H,2H,3H-pyrazolo[3,4-d]pyrimidin-3-one]",68
3,"C=CCn1c(=O)c2cnc(Nc3ccc(N4CCN(C)CC4)c(CO)c3)nc2n1-c1cccc(N=S(C)(C)=O)c1 [Example 30, 1-(3-{[Dimethyl(oxo)-λ^6-sulfanylidene]amino}phenyl)-6-{[3-(hydroxymethyl)-4-(4-methylpiperazin-1-yl)phenyl]amino}-2-(prop-2-en-1-yl)-1H,2H,3H-pyrazolo[3,4-d]pyrimidin-3-one]",0.5
4,"C=CCn1c(=O)c2cnc(Nc3ccc(Cl)cc3)nc2n1-c1cccc(N=S(C)(C)=O)n1 [Example 62, 6-[(4-Chlorophenyl)amino]-1-(6-{[dimethyl(oxo)-λ^6-sulfanylidene]amino}pyridin-2-yl)-2-(prop-2-en-1-yl)-1H,2H,3H-pyrazolo[3,4-d]pyrimidin-3-one]",0.3
5,"C=CCn1c(=O)c2cnc(Nc3ccc(N4C[C@@H](C)N[C@@H](C)C4)cc3)nc2n1-c1cccc(N=S(C)(C)=O)n1 [Example 17, 1-(6-{[Dimethyl(oxo)-λ^6-sulfanylidene]amino}pyridin-2-yl)-6-({4-[(3R,5S)-3,5-dimethylpiperazin-1-yl]phenyl}amino)-2-(prop-2-en-1-yl)-1H,2H,3H-pyrazolo[3,4-d]pyrimidin-3-one]",1.1
6,"C=CCn1c(=O)c2cnc(NC34CC(C3)C4)nc2n1-c1cccc(N=S(C)(C)=O)n1 [Example 63, 6-({Bicyclo[1.1.1]pentan-1-yl}amino)-1-(6-{[dimethyl(oxo)-λ^6-sulfanylidene]amino}pyridin-2-yl)-2-(prop-2-en-1-yl)-1H,2H,3H-pyrazolo[3,4-d]pyrimidin-3-one]",1000
7,"C=CCn1c(=O)c2cnc(Nc3ccc(C(F)(F)F)nc3)nc2n1-c1cccc(N=S(C)(C)=O)n1 [Example 81, 1-(6-{[Dimethyl(oxo)-λ^6-sulfanylidene]amino}pyridin-2-yl)-2-(prop-2-en-1-yl)-6-{[6-(trifluoromethyl)pyridin-3-yl]amino}-1H,2H,3H-pyrazolo[3,4-d]pyrimidin-3-one]",1.3
8,"C=CCn1c(=O)c2cnc(Nc3ccc(N4CCN(C)CC4)c(C)c3)nc2n1-c1cccc(N=S(C)(C)=O)n1 [Example 28, 1-(6-{[Dimethyl(oxo)-λ^6-sulfanylidene]amino}pyridin-2-yl)-6-{[3-methyl-4-(4-methylpiperazin-1-yl)phenyl]amino}-2-(prop-2-en-1-yl)-1H,2H,3H-pyrazolo[3,4-d]pyrimidin-3-one]",0.7
9,"C=CCn1c(=O)c2cnc(Nc3ccc(N4CCC(F)(F)CC4)cc3)nc2n1-c1cccc(N=S(C)(C)=O)n1 [Example 34, 1-(6-{[Dimethyl(oxo)-λ^6-sulfanylidene]amino}pyridin-2-yl)-6-{[4-(4,4-difluoropiperidin-1-yl)phenyl]amino}-2-(prop-2-en-1-yl)-1H,2H,3H-pyrazolo[3,4-d]pyrimidin-3-one]",4.6
10,"C=CCn1c(=O)c2cnc(Nc3ccc(N4CCOCC4)cc3)nc2n1-c1cncc(N=S(C)(C)=O)n1 [Example 51, 1-(6-{[Dimethyl(oxo)-λ^6-sulfanylidene]amino}pyrazin-2-yl)-6-{[4-(morpholin-4-yl)phenyl]amino}-2-(prop-2-en-1-yl)-1H,2H,3H-pyrazolo[3,4-d]pyrimidin-3-one]",0.6
11,"C=CCn1c(=O)c2cnc(Nc3cnn(C(C)C)c3)nc2n1-c1cccc(N=S(C)(C)=O)n1 [Example 80, 1-(6-{[Dimethyl(oxo)-λ^6-sulfanylidene]amino}pyridin-2-yl)-2-(prop-2-en-1-yl)-6-{[1-(propan-2-yl)-1H-pyrazol-4-yl]amino}-1H,2H,3H-pyrazolo[3,4-d]pyrimidin-3-one]",0.3
12,"CC(C)n1c(=O)c2cnc(Nc3ccc(N4CCOCC4)cc3)nc2n1-c1cccc(N=S(C)(C)=O)n1 [Example 43, 1-(6-{[Dimethyl(oxo)-λ^6-sulfanylidene]amino}pyridin-2-yl)-6-{[4-(morpholin-4-yl)phenyl]amino}-2-(propan-2-yl)-1H,2H,3H-pyrazolo[3,4-d]pyrimidin-3-one]",0.4
13,"C=CCn1c(=O)c2cnc(Nc3cccnc3)nc2n1-c1cccc(N=S(C)(C)=O)n1 [Example 77, 1-(6-{[Dimethyl(oxo)-λ^6-sulfanylidene]amino}pyridin-2-yl)-2-(prop-2-en-1-yl)-6-[(pyridin-3-yl)amino]-1H,2H,3H-pyrazolo[3,4-d]pyrimidin-3-one]",1000

# The remaining compounds from weak to strong by IC50, led by results:
row,IC50 [nM],Compound
1,46,"C=CCn1c(=O)c2cnc(Nc3cnn(C)c3)nc2n1-c1cccc(N=[S@@](C)(=O)c2ccccc2)n1 [Example 79, 1-(6-{[(S)-Methyl(oxo)phenyl-λ^6-sulfanylidene]amino}pyridin-2-yl)-6-[(1-methyl-1H-pyrazol-4-yl)amino]-2-(prop-2-en-1-yl)-1H,2H,3H-pyrazolo[3,4-d]pyrimidin-3-one]"
2,26,"CC(C)n1c(=O)c2cnc(Nc3ccc(C#N)cc3)nc2n1-c1cccc(N=S(C)(C)=O)n1 [Example 71, 4-{[1-(6-{[Dimethyl(oxo)-λ^6-sulfanylidene]amino}pyridin-2-yl)-3-oxo-2-(propan-2-yl)-1H,2H,3H-pyrazolo[3,4-d]pyrimidin-6-yl]amino}benzonitrile]"
3,19,"CC(C)n1c(=O)c2cnc(Nc3ccc(C(F)(F)F)cc3)nc2n1-c1cccc(N=S(C)(C)=O)n1 [Example 72, 1-(6-{[Dimethyl(oxo)-λ^6-sulfanylidene]amino}pyridin-2-yl)-2-(propan-2-yl)-6-{[4-(trifluoromethyl)phenyl]amino}-1H,2H,3H-pyrazolo[3,4-d]pyrimidin-3-one]"
4,18.5,"CC(C)n1c(=O)c2cnc(Nc3cnn(C)c3)nc2n1-c1cccc(N=S2(=O)CCCC2)n1 [Example 56, 6-[(1-Methyl-1H-pyrazol-4-yl)amino]-1-{6-[(1-oxo-1λ^6-thiolan-1-ylidene)amino]pyridin-2-yl}-2-(propan-2-yl)-1H,2H,3H-pyrazolo[3,4-d]pyrimidin-3-one]"
5,2.5,"C=CCn1c(=O)c2cnc(Nc3cnn(C)c3)nc2n1-c1cccc(N=S2(=O)CCCC2)n1 [Example 78, 6-[(1-Methyl-1H-pyrazol-4-yl)amino]-1-{6-[(1-oxo-1λ^6-thiolan-1-ylidene)amino]pyridin-2-yl}-2-(prop-2-en-1-yl)-1H,2H,3H-pyrazolo[3,4-d]pyrimidin-3-one]"
6,1.5,"C=CCn1c(=O)c2cnc(Nc3ccc(N4CCN[C@H](C)C4)cc3)nc2n1-c1cccc(N=S(C)(C)=O)n1 [Example 9, 1-(6-{[Dimethyl(oxo)-λ^6-sulfanylidene]amino}pyridine-2-yl)-6-({4-[(3R)-3-methylpiperazin-1-yl]phenyl}amino)-2-(prop-2-en-1-yl)-1H,2H,3H-pyrazolo[3,4-d]pyrimidin-3-one]"
7,0.9,"C=CCn1c(=O)c2cnc(Nc3ccc(N4CCNCC4)c(CO)c3)nc2n1-c1cccc(N=S(C)(C)=O)c1 [Example 29, 1-(3-{[Dimethyl(oxo)-λ^6-sulfanylidene]amino}phenyl)-6-{[3-(hydroxymethyl)-4-(piperazin-1-yl)phenyl]amino}-2-(prop-2-en-1-yl)-1H,2H,3H-pyrazolo[3,4-d]pyrimidin-3-one]"
8,0.8,"C=CCn1c(=O)c2cnc(Nc3ccc(N4CCOCC4)cc3)nc2n1-c1nccc(N=S(C)(C)=O)n1 [Example 52, 1-(4-{[Dimethyl(oxo)-λ^6-sulfanylidene]amino}pyrimidin-2-yl)-6-{[4-(morpholin-4-yl)phenyl]amino}-2-(prop-2-en-1-yl)-1H,2H,3H-pyrazolo[3,4-d]pyrimidin-3-one]"
9,0.5,"C=CCn1c(=O)c2cnc(Nc3ccc(F)c(F)c3)nc2n1-c1cccc(N=S(C)(C)=O)n1 [Example 66, 6-[(3,4-Difluorophenyl)amino]-1-(6-{[dimethyl(oxo)-λ^6-sulfanylidene]amino}pyridin-2-yl)-2-(prop-2-en-1-yl)-1H,2H,3H-pyrazolo[3,4-d]pyrimidin-3-one]"
10,0.4,"C=CCn1c(=O)c2cnc(Nc3ccc(F)c(OC)c3)nc2n1-c1cccc(N=S(C)(C)=O)n1 [Example 82, 1-(6-{[Dimethyl(oxo)-λ^6-sulfanylidene]amino}pyridin-2-yl)-6-[(4-fluoro-3-methoxyphenyl)amino]-2-(prop-2-en-1-yl)-1H,2H,3H-pyrazolo[3,4-d]pyrimidin-3-one]"
11,0.1,"C=CCn1c(=O)c2cnc(Nc3ccc(N4CC5CCC(C4)O5)cc3)nc2n1-c1cccc(N=S(C)(C)=O)n1 [Example 36, 1-(6-{[Dimethyl(oxo)-λ^6-sulfanylidene]amino}pyridin-2-yl)-6-{[4-(8-oxa-3-azabicyclo[3.2.1]octan-3-yl)phenyl]amino}-2-(prop-2-en-1-yl)-1H,2H,3H-pyrazolo[3,4-d]pyrimidin-3-one]"
